The source of these data is patent EP4483954A1 (Masarykova Univerzita, priority 2023, dated 2025).

The experiment concerns the target T1, Haspin (h) (Homo sapiens, UniProt Q8TF76).
T1 construct: purchased Eurofins (KinaseProfiler)
T1 sequence (Q8TF76 1-798): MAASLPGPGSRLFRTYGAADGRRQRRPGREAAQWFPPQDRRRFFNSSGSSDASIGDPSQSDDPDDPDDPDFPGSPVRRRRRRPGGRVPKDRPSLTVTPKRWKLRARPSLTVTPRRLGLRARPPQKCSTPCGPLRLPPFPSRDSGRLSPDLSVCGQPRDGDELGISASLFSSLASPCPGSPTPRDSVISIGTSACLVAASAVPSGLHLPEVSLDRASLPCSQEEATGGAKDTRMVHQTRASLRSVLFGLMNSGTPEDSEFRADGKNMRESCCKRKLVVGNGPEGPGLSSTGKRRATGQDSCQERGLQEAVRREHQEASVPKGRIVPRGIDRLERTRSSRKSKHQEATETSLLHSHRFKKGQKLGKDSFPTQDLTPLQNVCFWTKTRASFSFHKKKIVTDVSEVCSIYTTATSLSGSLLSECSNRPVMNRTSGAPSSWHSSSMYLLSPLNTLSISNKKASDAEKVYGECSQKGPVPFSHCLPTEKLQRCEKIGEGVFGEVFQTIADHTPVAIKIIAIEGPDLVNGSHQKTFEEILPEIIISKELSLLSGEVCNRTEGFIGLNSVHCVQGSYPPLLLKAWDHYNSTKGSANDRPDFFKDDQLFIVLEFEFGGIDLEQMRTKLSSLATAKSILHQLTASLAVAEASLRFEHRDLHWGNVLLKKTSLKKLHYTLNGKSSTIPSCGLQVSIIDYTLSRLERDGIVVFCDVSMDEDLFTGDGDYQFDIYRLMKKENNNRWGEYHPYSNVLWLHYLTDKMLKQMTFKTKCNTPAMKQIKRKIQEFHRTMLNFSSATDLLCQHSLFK
The experiment can be described thus: radiometric kinase assay (KinaseProfiler, Eurofins), Haspin. The experiment is classed as biochemical. To be noted: in vitro radiometric kinase assay, tested at 1 nM to 10 000 nM, no pre-incubation; read-out: inhibitory activities (IC50 values) Haspin. The procedure:
The compounds were profiled in the radiometric assays (KinaseProfiler, Eurofins).
Briefly, kinases were diluted in the buffer shown below prior to addition to the reaction mix: • CDKL3, TAF1L: 20 mM Tris/HCl pH 8.5, 0.2 mM EDTA, 0.1% β-mercaptoethanol, 0.01% Brij-35, 5% glycerol, 1 mg/ml BSA; • Haspin: 15 mM MOPS, 0.75 mM EDTA, 0.0075% Brij-35, 3.75% Glycerol, 150 mM NaCl, 0.1% β-mercaptoethanol, 1 mg/mLBSA; • CDKL4, CLK2, PIM1, TRB2: […], 1 mM EDTA, 0.01% Brij-35, 5% Glycerol, 0.1% β-mercaptoethanol, 1 mg/mL BSA.
All compounds were prepared to 50x final assay concentration in 100% DMSO. This working stock of the compound was added to the assay well as the first component in the reaction, followed by the remaining components as detailed in the general assay protocols below. There was no pre-incubation step between the compound and the kinase prior to initiation of the reaction.
Haspin (h) was incubated with 8 mM MOPS pH 7.0, 0.2 mM EDTA, 500 µM RARTLSFAEPG (SEQ ID NO. 3), 10 mM magnesium acetate and γ-^33P-ATP (specific activity and concentration as required). The reaction was initiated by the addition of the Mg/ATP mix. After incubation for 40 minutes at room temperature, the reaction was stopped by the addition of phosphoric acid to a concentration of 0.5%. An aliquot of the reaction was then spotted onto a filter and washed four times for 4 minutes in 0.425% phosphoric acid and once in methanol prior to drying and scintillation counting.
Kinase activity data were expressed as the percent remaining kinase activity in tested samples compared to the vehicle (DMSO) reactions. The compounds were tested at the following concentrations: 1 nM, 3 nM, 10 nM, 30 nM, 100 nM, 300 nM, 1000 nM, 3000 nM, and 10 000 nM; IC50 values and curve fits were then obtained.

Usually IC50 stands for the concentration that gives 50% inhibition. In the case of `Cn1ccc(Sc2ccc3scc(-c4ccncc4)c3n2)n1`, the IC50 was in the range of 500 to 3000 nM. On to `Cn1cc(-c2ccc3scc(-c4ccnc(CNC(=O)OC(C)(C)C)c4)c3n2)cn1`, for which the IC50 was in the range of 3000 to 10000 nM. With `Cn1cc(-c2ccc3scc(-c4ccc(C#N)cc4)c3n2)cn1` [Preparative Example 4, 4-(5-(1-methyl-1H-pyrazol-4-yl)thieno[3.2-b]pyridin-3-yl)benzonitrile] the figure was 100 to 499 nM; with `Cn1cc(-c2ccc3scc(-c4ccc(F)cc4)c3n2)cn1` [Preparative Example 6, 3-(4-fluorophenyl)-5-(1-methyl-1H-pyrazol-4-yl)-thieno[3,2-b]pyridine], 100 to 499 nM; with `Cn1cc(-c2ccc3scc(-c4ccnc(O)c4)c3n2)cn1` [Preparative Example 18, 4-(5-(1-methyl-1H-pyrazol-4-yl)thieno[3,2-b]-pyridin-3-yl)pyridin-2-ol], 100 to 499 nM. In the case of `Cn1cc(-c2ccc3scc(-c4ccnc(NC(=O)OC(C)(C)C)c4)c3n2)cn1` [Preparative Example 24, tert-butyl (4-(5-(1-methyl-1H-pyrazol-4-yl)thieno[3,2-b]pyridin-3-yl)pyridin-2-yl)carbamate], the half-maximal inhibitory concentration (IC50) is 100 to 499 nM. With `Cn1cc(-c2ccc3scc(-c4ccnc(N)c4)c3n2)cn1` [Preparative Example 25, 4-(5-(1-methyl-1H-pyrazol-4-yl)thieno[3,2-b]pyridin-3-yl)pyridin-2-amine] the figure was 20 to 99 nM. The figure for `Cn1cc(-c2ccc3scc(-c4cncnc4)c3n2)cn1` [Preparative Example 38, 5-(1-methyl-1H-pyrazol-4-yl)-3-(pyrimidin-5-yl)thieno[3,2-b]pyridine] is 100 to 499 nM; for `Cn1cc(-c2ccc3scc(-c4ccc(N5CCOCC5)nc4)c3n2)cn1` [Preparative Example 42, 4-(5-(5-(1-methyl-1H-pyrazol-4-yl)thieno[3,2-b]-pyridin-3-yl)pyridin-2-yl)morpholine] it is 500 to 3000 nM; for `Cc1ccc(S(=O)(=O)n2ccc3c(-c4csc5ccc(-c6cnn(C)c6)nc45)ccnc32)cc1` [Preparative Example 44, 5-(1-methyl-1H-pyrazol-4-yl)-3-(1-tosyl-1H-pyrrolo[2,3-b]pyridin-4-yl)thieno[3,2-b]pyridine] it is 3000 to 10000 nM. For `Cn1cc(-c2ccc3scc(-c4ccnc5[nH]ccc45)c3n2)cn1` [Preparative Example 45, 5-(1-methyl-1H-pyrazol-4-yl)-3-(1H-pyrrolo[2,3-b]pyridin-4-yl)thieno[3,2-b]pyridine], the IC50 was in the range of 100 to 499 nM.

With `Cn1cc(-c2ccc3scc(-c4ccc5ncncc5c4)c3n2)cn1` [Preparative Example 47, 5-(1-methyl-1H-pyrazol-4-yl)-3-(quinazolin-6-yl)thieno[3,2-b]pyridine], the IC50 was 100 to 499 nM. Turning to `Cn1cc(-c2ccc3scc(-c4ccc5nccnc5c4)c3n2)cn1` [Preparative Example 49, 5-(1-methyl-1H-pyrazol-4-yl)-3-(quinoxalin-6-yl)thieno[3,2-b]pyridine], the IC50 lay in the range of 20 to 99 nM.

On to `Cn1cc(-c2ccc3scc(-c4ccc5n[nH]cc5c4)c3n2)cn1` [Preparative Example 51, 3-(2H-indazol-5-yl)-5-(1-methyl-1H-pyrazol-4-yl)thieno[3,2-b]-pyridine], for which the IC50 was in the range of 100 to 499 nM. On to `Cn1cc(-c2ccc3scc(-c4cnc5ccnn5c4)c3n2)cn1` [Preparative Example 55, 5-(1-methyl-1H-pyrazol-4-yl)-3-(pyrazolo[1,5-a]-pyrimidin-6-yl)thieno[3,2-b]pyridine], for which the IC50 is 100 to 499 nM. The figure for `Cn1cc(-c2ccc3scc(-c4ccc5nccn5c4)c3n2)cn1` [Preparative Example 57, 3-(imidazo[1,2-a]pyridin-6-yl)-5-(1-methyl-1H-pyrazol-4-yl)thieno[3,2-b]pyridine] is 20 to 99 nM. With `Cn1cc(-c2ccc3scc(-c4ccc5nncn5c4)c3n2)cn1` [Preparative Example 59, 3-([1,2,4]-triazolo[4,3-a]pyridin-6-yl)-5-(1-methyl-1H-pyrazol-4-yl)thieno[3,2-b]pyridine] the figure was 100 to 499 nM; with `Cn1cc(-c2ccc3scc(-c4cc5ncccn5n4)c3n2)cn1` [Preparative Example 61, 5-(1-methyl-1H-pyrazol-4-yl)-3-(pyrazolo[1,5-a]pyrimidin-2-yl)thieno[3,2-b]pyridine], 100 to 499 nM; with `CC(C)(C)n1ccc(-c2ccc3scc(-c4ccncc4)c3n2)n1` [Preparative Example 80, 5-(1-(tert-butyl)-1H-pyrazol-3-yl)-3-(pyridin-4-yl)thieno[3,2-b]pyridine], 3000 to 10000 nM.

With `CCn1ccc(-c2ccc3scc(-c4ccncc4)c3n2)n1` [Preparative Example 87, 5-(1-ethyl-1H-pyrazol-3-yl)-3-(pyridin-4-yl)thieno[3,2-b]pyridine], the IC50 was in the range of 500 to 3000 nM. With `c1ccc(-n2ccc(-c3ccc4scc(-c5ccncc5)c4n3)n2)cc1` [Preparative Example 88, 5-(1-phenyl-1H-pyrazol-3-yl)-3-(pyridin-4-yl)thieno[3,2-b]pyridine] the figure was 500 to 3000 nM. On to `c1ccc(Cn2ccc(-c3ccc4scc(-c5ccncc5)c4n3)n2)cc1` [Preparative Example 89, 5-(1-benzyl-1H-pyrazol-3-yl)-3-(pyridin-4-yl)thieno[3,2-b]pyridine], for which the IC50 fell in the range of 500 to 3000 nM. With `c1cc(-c2csc3ccc(-c4ccns4)nc23)ccn1` [Preparative Example 92, 5-(isothiazol-5-yl)-3-(pyridin-4-yl)thieno[3,2-b]pyridine], the IC50 fell in the range of 500 to 3000 nM. With `Cn1ncnc1-c1ccc2scc(-c3ccncc3)c2n1` [Preparative Example 96, 5-(1-methyl-1H-1,2,4-triazol-5-yl)-3-(pyridin-4-yl)thieno[3,2-b]pyridine] the figure was 3000 to 10000 nM; with `Cn1cc(Nc2ccc3scc(-c4ccncc4)c3n2)cn1` [Preparative Example 97, N-(1-methyl-1H-pyrazol-4-yl)-3-(pyridin-4-yl)thieno[3,2-b]pyridin-5-amine], 100 to 499 nM. Take `c1cc(-c2csc3ccc(Nc4cn[nH]c4)nc23)ccn1` [Preparative Example 98, N-(1H-pyrazol-4-yl)-3-(pyridin-4-yl)thieno[3,2-b]pyridin-5-amine]: the IC50 was in the range of 20 to 99 nM. With `CN(c1ccc2scc(-c3ccncc3)c2n1)c1ccn(C)n1` [Preparative Example 100, N-methyl-N-(1-methyl-1H-pyrazol-3-yl)-3-(pyridin-4-yl)thieno[3,2-b]pyridin-5-amine] the figure was 500 to 3000 nM. As to `Cc1cc(Nc2ccc3scc(-c4ccncc4)c3n2)nn1C` [Preparative Example 102, N-(1,5-dimethyl-1H-pyrazol-3-yl)-3-(pyridin-4-yl)thieno[3,2-b]pyridin-5-amine], the IC50 was 100 to 499 nM. Turning to `Cn1nc(Nc2ccc3scc(-c4ccncc4)c3n2)cc1NC(=O)OC(C)(C)C` [Preparative Example 103, tert-butyl (1-methyl-3-((3-(pyridin-4-yl)thieno[3,2-b]pyridin-5-yl)-amino)-1H-pyrazol-5-yl)carbamate], the IC50 was 3000 to 10000 nM.

As to `Cn1nc(Nc2ccc3scc(-c4ccncc4)c3n2)cc1N` [Preparative Example 104, 1-methyl-N3-(3-(pyridin-4-yl)thieno[3,2-b]pyridin-5-yl)-1H-pyrazole-3,5-diamine], the IC50 is 500 to 3000 nM.
